Measurements reported in patent US10335446B2, “Methods of treating diseases using grape proteins” (priority 2015, dated 2019).
Several values for one entry are separate records, joined by “and”; a condition that tells them apart may be missing. Equal entries are not always repeated. Where two headings read alike, the source gives them in different places. Marks after values point to notes of the source that are not given here.

Key:
[1] = Diet-induced obesity (DIO) mice study: blood glucose, insulin, plasma lipids, body weight, food intake; type: in vivo, C57BL/6J male mice; details: Atorvastatin 20 mg/kg, test articles tid po 10 mL/kg + ad libitum
Molt-4-luc leukemia = type: in vivo
Procedure: Temperature and relative humidity were monitored daily.
The tumor cells were routinely subcultured twice weekly.
Whole body and metastatic bioluminescence were measured and recorded.
Tumor growth curve was plotted with median relative bioluminescence.

[2] = tested on: MDA-MB-436 human breast cancer; assay: Subcutaneous MDA-MB-436 human breast cancer xenograft model, tumor volume and weight; type: in vivo, female BALB/c nude mice
Procedure: The in vivo anti-tumor efficacy of KHJ, KH103, and KHGD in the subcutaneous MDA-MB-436 human breast cancer model in female BALB/c nude mice was evaluated.
The animals used were of the species Mus musculus, strain BALB/c nude, age 6-8 weeks, and female. The body weight was 18-22 g. The number of animals was 90 mice, plus spare. The animal supplier was Shanghai BK Laboratory Animal Co., LTD.
The tumor cells were routinely subcultured twice weekly by trypsin-EDTA treatment.
Each mouse was inoculated subcutaneously at the right flank with MDA-MB-436 tumor cells (1×10^7) in 0.1 ml of PBS supplemented with BD Matrigel (1:1) for tumor development. The prophylactic treatments were started 13 days before inoculation. The therapeutic treatments were started on day 9 after tumor inoculation when the average tumor size reached approximately 81 mm^3. Each group consisted of 10 tumor-bearing mice. The testing article was administrated to the mice according to the predetermined regimen as shown in the experimental design Table 21 (prophylactic) and Table 22 (therapeutic).
The major endpoint was to see if the tumor growth could be delayed or mice could be cured. Tumor size was measured twice weekly in two dimensions using a caliper, and the volume was expressed in mm^3 using the formula: V=0.5 a×b^2 where a and b are the long and short diameters of the tumor, respectively. The tumor size was then used for calculations of both T-C and T/C values. T-C was calculated with T as the time (in days) required for the mean volume of treatment group tumors to reach 600 mm^3, and C as the time (in days) for the mean volume of control group tumors to reach the same size. The T/C value (in percent) is an indication of antitumor effectiveness; T and C are the mean volumes of the treated and control groups, respectively, on a given day.
ΔTGI was calculated for each group using the formula: ΔTGI (%)=[1−(Ti−T0)/(Vi−V0)]×100; Ti is the average tumor volume of a treatment group on a given day, T0 is the average tumor volume of the treatment group on the day of treatment start, Vi is the average tumor volume of the vehicle control group on the same day with Ti, and V0 is the average tumor volume of the vehicle group on the day of treatment start.
Tumor pictures were taken and tumor weight was measured at the study termination. T/Cweight value (in percent) was calculated using the formula: T/Cweight%=Tweight/Cweight×100% where Tweight and Cweight were the mean tumor weights of the treated and vehicle control groups, respectively.
Statistical analyses of differences in tumor volume and tumor weight among the groups were conducted on the data obtained when the average tumor volume of vehicle-therapeutic group reached 2,000 mm^3 (Day 71 after inoculation).
One-way ANOVA was performed to compare tumor volume and tumor weight among groups, and when a significant F-statistics (a ratio of treatment variance to the error variance) was obtained, comparisons between groups were carried out with Dunnett t-tests.

[3] = type: in vivo, female BALB/c nude mice
Procedure: At the time of routine monitoring, the animals were daily checked for any effects of tumor growth and treatments on normal behavior such as mobility, food and water consumption (by looking only), body weight gain/loss (body weights were measured twice weekly), eye/hair matting and any other abnormal effect as stated in the protocol. Death and observed clinical signs were recorded on the basis of the numbers of animals within each subset.
Animal body weight was monitored regularly as an indirect measure of toxicity (FIG. 54A-B). No group lost weight as a result of test article administration, except the prophylactic KHGD Group 4 which was found with sign of emaciation and dehydration due to the 3 days' whole-day supply of KHGD.

3T3-L1 adipocytes = assay: Glucose uptake assay (2-deoxy-D-[3H]-glucose) in 3T3-L1 adipocytes; type: cell-based; details: for EC50: read-out: Insulin EC50
[4] = day 111 after the cell injection, positive control, treatment right after cell injection, of 6 mice
[5] = 2014 Aug. 27, insulin dose 0.01 nM
[6] = 2014 Aug. 27, insulin dose 0.03 nM
[7] = 2014 Aug. 27, insulin dose 0.09 nM
[8] = 2014 Aug. 27, insulin dose 0.27 nM
[9] = 2014 Aug. 27, insulin dose 7.41 nM
[10] = 2014 Aug. 27, insulin dose 22.2 nM
[11] = 2014 Aug. 27, insulin dose 66.7 nM
[12] = 2014 Aug. 27, insulin dose 200 nM
[13] = 2014 Aug. 28, insulin dose 0.27 nM
[14] = 2014 Aug. 28, insulin dose 2.47 nM
[15] = 2014 Aug. 28, insulin dose 7.41 nM
[16] = 2014 Aug. 28, insulin dose 22.2 nM
[17] = 2014 Aug. 28, insulin dose 66.7 nM
[18] = 2014 Aug. 28, insulin dose 200 nM
[19] = 2014 Jul. 11, insulin dose 0.82 nM
[20] = 2014 Jul. 11, insulin dose 7.41 nM
[21] = 2014 Jul. 11, insulin dose 22.22 nM
[22] = 2014 Jul. 11, insulin dose 66.67 nM
[23] = 2014 Jul. 11, insulin dose 200 nM
[24] = 2014 Jul. 14, insulin dose 0.09 nM
[25] = 2014 Jul. 14, insulin dose 0.82 nM
[26] = 2014 Jul. 14, insulin dose 2.47 nM
[27] = 2014 Jul. 14, insulin dose 7.41 nM
[28] = 2014 Jul. 14, insulin dose 22.2 nM
[29] = 2014 Jul. 14, insulin dose 66.7 nM
[30] = 2014 Jul. 14, insulin dose 200 nM
[31] = Insulin dose 0.09 nM, duplicates
[32] = Insulin dose 7.41 nM, duplicates
[33] = Insulin dose 22.2 nM, duplicates
[34] = Insulin dose 66.7 nM, duplicates
[35] = Insulin dose 200 nM, duplicates

CC(C)c1c(C(=O)Nc2ccccc2)c(-c2ccccc2)c(-c2ccc(F)cc2)n1CC[C@@H](O)C[C@@H](O)CC(=O)O [Atorvastatin]
body weight of the DIO mice [1]: significantly decrease
blood glucose level ([1]; DIO mice, 0-8 weeks): significantly decrease
insulin sensibility ([1]; DIO mice, 0-8 weeks): significantly increase

O=P1(N(CCCl)CCCl)NCCCO1 (stereo not shown) [Cyclophosphamide]
survival until day 150 (Molt-4-luc leukemia; all mice of the group): died
median relative bioluminescence (Molt-4-luc leukemia; day 50 after cell implantation, treatment given right after cell injection (therapeutic / positive control group), vehicle 153.43): 1.40
Animals # with bioluminescence signal (Molt-4-luc leukemia; [4]): 1
Survival animals # (Molt-4-luc leukemia; [4]): 5
survival of mice (Molt-4-luc leukemia; day 111 after the cell injection, six mice per group, vehicle: two mice died): one mouse died
day at which one mouse died (Molt-4-luc leukemia; mouse, in vivo): 57 days

CC(=O)O[C@H]1C(=O)[C@@]2(C)[C@H]([C@H](OC(=O)c3ccccc3)[C@]3(O)C[C@H](OC(=O)[C@H](O)[C@@H](NC(=O)c4ccccc4)c4ccccc4)C(C)=C1C3(C)C)[C@]1(OC(C)=O)CO[C@@H]1C[C@@H]2O [Paclitaxel]
Tumor Size at day 71 ([2]; therapeutic arm, Mean ± SEM at day 71 after inoculation): 637 ± 211 mm^3
Tumor Weight at day 78 ([2]; therapeutic arm, Mean ± SEM at day 78 after inoculation): 0.67 ± 0.23 g
ΔTGI ([2]; therapeutic arm, day 71): 71%
T-C at 600 mm^3 ([2]; therapeutic arm, tumor growth delay at tumor size 600 mm^3): 23 days
T/C ([2]; therapeutic arm, tumor volume at day 71 vs vehicle-therapeutic): 31%
T/Cweight ([2]; therapeutic arm, tumor weight at day 78 vs vehicle-therapeutic): 39.6%
antitumor activity ([2]; therapeutic arms): statistically significant antitumor activity
tumor growth delay at tumor size of 600 mm^3 ([2]; therapeutic arms, compared with the vehicle group): 23 days
T/C value ([2]; therapeutic arms, day 71): 31%
mean tumor size ([2]; therapeutic arms, day 71 after tumor inoculation, vehicle 2,025, Paclitaxel 1.5 mg/kg, BIW×9 weeks): 637 mm^3
mortality ([3]; Group 6, days after the start of therapeutic treatment, possibly due to drug toxicity): died on day 20 and day 63
BWL > 20% ([3]; mouse, in vivo): 0
Subtotal mice# lost/N ([3]; therapeutic arm): 2/10
mortality ([3]; therapeutic arm, number of animals, n=10): 2^a (D20, 63)^b

Insulin
% Activity (3T3-L1 adipocytes; [5]): 5% and 6%
Count (3T3-L1 adipocytes; [5]): 2169 and 2178
% Activity (3T3-L1 adipocytes; [6]): −8% and −12%
Count (3T3-L1 adipocytes; [6]): 2065 and 2030
% Activity (3T3-L1 adipocytes; [7]): 6% and 4%
Count (3T3-L1 adipocytes; [7]): 2177 and 2166
% Activity (3T3-L1 adipocytes; [8]): 2% and −7%
Count (3T3-L1 adipocytes; [8]): 2145 and 2075
Count (3T3-L1 adipocytes; 2014 Aug. 27, insulin dose 0.82 nM): 2390 and 2146
Count (3T3-L1 adipocytes; 2014 Aug. 27, insulin dose 2.47 nM): 2131 and 2284
% Activity (3T3-L1 adipocytes; [9]): 54% and 42%
Count (3T3-L1 adipocytes; [9]): 2579 and 2483
% Activity (3T3-L1 adipocytes; [10]): 53% and 61%
Count (3T3-L1 adipocytes; [10]): 2573 and 2636
% Activity (3T3-L1 adipocytes; [11]): 90% and 93%
Count (3T3-L1 adipocytes; [11]): 2877 and 2903
% Activity (3T3-L1 adipocytes; [12]): 52% and 59%
Count (3T3-L1 adipocytes; [12]): 2565 and 2617
Count (3T3-L1 adipocytes; 2014 Aug. 28, insulin dose 0.01 nM): 1918 and 2052
Count (3T3-L1 adipocytes; 2014 Aug. 28, insulin dose 0.03 nM): 2281 and 2003
Count (3T3-L1 adipocytes; 2014 Aug. 28, insulin dose 0.09 nM): 2130 and 2378
% Activity (3T3-L1 adipocytes; [13]): 19% and 24%
Count (3T3-L1 adipocytes; [13]): 2258 and 2306
Count (3T3-L1 adipocytes; 2014 Aug. 28, insulin dose 0.82 nM): 2111 and 2261
% Activity (3T3-L1 adipocytes; [14]): 13% and 22%
Count (3T3-L1 adipocytes; [14]): 2208 and 2286
% Activity (3T3-L1 adipocytes; [15]): 39% and 41%
Count (3T3-L1 adipocytes; [15]): 2427 and 2442
% Activity (3T3-L1 adipocytes; [16]): 84% and 48%
Count (3T3-L1 adipocytes; [16]): 2812 and 2503
% Activity (3T3-L1 adipocytes; [17]): 75% and 85%
Count (3T3-L1 adipocytes; [17]): 2736 and 2827
% Activity (3T3-L1 adipocytes; [18]): 85% and 56%
Count (3T3-L1 adipocytes; [18]): 2813 and 2574
Count (3T3-L1 adipocytes; 2014 Jul. 11, insulin dose 0.09 nM): 760 and 587
Count (3T3-L1 adipocytes; 2014 Jul. 11, insulin dose 0.27 nM): 709 and 761
% Activity (3T3-L1 adipocytes; [19]): 28% and 17%
Count (3T3-L1 adipocytes; [19]): 800 and 746
Count (3T3-L1 adipocytes; 2014 Jul. 11, insulin dose 2.47 nM): 736 and 828
% Activity (3T3-L1 adipocytes; [20]): 47% and 70%
Count (3T3-L1 adipocytes; [20]): 884 and 992
% Activity (3T3-L1 adipocytes; [21]): 47% and 72%
Count (3T3-L1 adipocytes; [21]): 887 and 1000
% Activity (3T3-L1 adipocytes; [22]): 68% and 72%
Count (3T3-L1 adipocytes; [22]): 979 and 1000
% Activity (3T3-L1 adipocytes; [23]): 68% and 70%
Count (3T3-L1 adipocytes; [23]): 980 and 989
% Activity (3T3-L1 adipocytes; [24]): 3% and 11%
Count (3T3-L1 adipocytes; [24]): 1033 and 1075
Count (3T3-L1 adipocytes; 2014 Jul. 14, insulin dose 0.27 nM): 1118 and 1018
% Activity (3T3-L1 adipocytes; [25]): 12%
Count (3T3-L1 adipocytes; [25]): 1082 and 1083
% Activity (3T3-L1 adipocytes; [26]): 55% and 32%
Count (3T3-L1 adipocytes; [26]): 1317 and 1191
% Activity (3T3-L1 adipocytes; [27]): 59% and 41%
Count (3T3-L1 adipocytes; [27]): 1335 and 1238
% Activity (3T3-L1 adipocytes; [28]): 61% and 63%
Count (3T3-L1 adipocytes; [28]): 1347 and 1362
% Activity (3T3-L1 adipocytes; [29]): 64% and 42%
Count (3T3-L1 adipocytes; [29]): 1364 and 1243
% Activity (3T3-L1 adipocytes; [30]): 97% and 106%
Count (3T3-L1 adipocytes; [30]): 1545 and 1591
Count (3T3-L1 adipocytes; Insulin dose 0.03 nM, duplicates): 2039 and 1067
% Activity (3T3-L1 adipocytes; [31]): −3% and −4%
Count (3T3-L1 adipocytes; [31]): 2101 and 2091
Count (3T3-L1 adipocytes; Insulin dose 0.27 nM, duplicates): 2196 and 2340
Count (3T3-L1 adipocytes; Insulin dose 0.82 nM, duplicates): 2069 and 2263
% Activity (3T3-L1 adipocytes; [32]): 31% and 39%
Count (3T3-L1 adipocytes; [32]): 2395 and 2466
% Activity (3T3-L1 adipocytes; [33]): 58% and 63%
Count (3T3-L1 adipocytes; [33]): 2633 and 2673
% Activity (3T3-L1 adipocytes; [34]): 70% and 61%
Count (3T3-L1 adipocytes; [34]): 2736 and 2660
% Activity (3T3-L1 adipocytes; [35]): 80% and 62%
Count (3T3-L1 adipocytes; [35]): 2820 and 2663
EC50 (3T3-L1 adipocytes; run of 2014 Aug. 27): 2.54 nM
EC50 (3T3-L1 adipocytes; run of 2014 Aug. 28): 6.94 nM
EC50 (3T3-L1 adipocytes; run of 2014 Aug. 29): 6.66 nM
EC50 (3T3-L1 adipocytes; run of 2014 Jul. 11): 3.96 nM
EC50 (3T3-L1 adipocytes; run of 2014 Jul. 14): 2.46 nM
